This note sets out measurements from ChEMBL document CHEMBL2074191, “Electrophysiological characteristics of the proton-coupled peptide transporter PEPT2 cloned from rat brain” (Am J Physiol, 1998).

For orientation: IC50 means the point on the concentration scale where inhibition reaches its midpoint. Lower therefore signals inhibition by little substance. By Km is commonly meant the concentration of substrate that gives half-maximal velocity.

Common to all, as to format: functional, cell-based
The target of data set [1] is T1, Solute carrier family 15 member 2 (Rattus norvegicus) (UniProt Q63424).
T1 sequence (whole entry): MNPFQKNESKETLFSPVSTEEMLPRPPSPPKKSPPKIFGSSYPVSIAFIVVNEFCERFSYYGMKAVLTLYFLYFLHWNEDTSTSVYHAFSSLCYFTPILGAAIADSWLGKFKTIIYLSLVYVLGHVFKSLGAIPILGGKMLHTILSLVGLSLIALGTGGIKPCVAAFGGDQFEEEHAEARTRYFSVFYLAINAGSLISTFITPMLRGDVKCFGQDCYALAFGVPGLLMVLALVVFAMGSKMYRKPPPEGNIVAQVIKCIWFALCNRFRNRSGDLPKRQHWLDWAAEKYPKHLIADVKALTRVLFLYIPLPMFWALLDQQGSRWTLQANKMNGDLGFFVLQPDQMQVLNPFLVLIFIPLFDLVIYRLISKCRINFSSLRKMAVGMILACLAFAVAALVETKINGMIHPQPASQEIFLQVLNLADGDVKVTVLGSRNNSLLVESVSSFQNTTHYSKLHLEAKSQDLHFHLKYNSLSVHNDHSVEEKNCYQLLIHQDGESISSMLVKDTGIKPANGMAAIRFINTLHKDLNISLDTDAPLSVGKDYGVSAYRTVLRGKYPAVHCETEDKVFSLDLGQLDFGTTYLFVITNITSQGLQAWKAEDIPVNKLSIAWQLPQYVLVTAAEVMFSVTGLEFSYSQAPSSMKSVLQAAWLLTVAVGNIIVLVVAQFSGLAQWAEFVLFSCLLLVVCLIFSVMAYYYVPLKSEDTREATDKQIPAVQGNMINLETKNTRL
Nature of the data set: TP_TRANSPORTER: inhibition of Gly-Sar uptake (Gly-Sar: 30 uM, Ala-Glu: 500 uM) in PEPT2-expressing SK-N-SH cells.

The target of data set [2] is T1, Solute carrier family 15 member 2 (Rattus norvegicus). The data set is described as follows: TP_TRANSPORTER: inhibition of Gly-Sar uptake (Gly-Sar: 30 uM, Ala-Lys: 500 uM) in PEPT2-expressing SK-N-SH cells.
The target is the same in data set [3]. Nature of the data set: TP_TRANSPORTER: inhibition of Gly-Sar uptake (Gly-Sar: 30 uM, Ala-Val: 500 uM) in PEPT2-expressing SK-N-SH cells.
For data set [4] the target is unchanged. The data set is described as follows: (§1) TP_TRANSPORTER: uptake in PEPT2-expressing HeLa cells.
The target in data set [5] is T2, Solute carrier family 15 member 2 (Rattus norvegicus, UniProt Q63424).
T2 sequence (Q63424 whole entry): T1 sequence (whole entry)
Nature of the data set: TP_TRANSPORTER: inhibition of Gly-Sar uptake (Gly-Sar: 10 uM) in PEPT2-expressing SK-N-SH cells.

Substrate in data set [6]: CN(CC(=O)O)C(=O)CN
Described as §1.

Residues, ends and D or L forms follow the SMILES beside them.

As for `C[C@H](N)C(=O)N[C@@H](CCC(=O)O)C(=O)O` (H-Ala-Glu-OH), the Activity entry in data set [1] is “inhibitor [+]”.

For the molecule `C[C@H](N)C(=O)N[C@@H](CCCCN)C(=O)O` (H-Ala-Lys-OH), the Activity entry in data set [2] was “inhibitor [+]”. As for `CC(C)[C@H](NC(=O)[C@H](C)N)C(=O)O` (H-Ala-Val-OH), the Activity result in data set [3] is “inhibitor [+]”. For `NCC(=O)NCC(=O)O` (H-Gly-Gly-OH), the Activity entry in data set [4] was “substrate [+]”.

With `NCC(=O)N[C@@H](Cc1ccccc1)C(=O)O` (H-Gly-Phe-OH), the Activity result in data set [4] is “substrate [+]”. The same measure, in the same setting: with `NCC(=O)N1CCC[C@H]1C(=O)O` (H-Gly-Pro-OH) the entry was “substrate [+]”. In the case of `CC(=O)N[C@@H](CC(=O)O)C(=O)N[C@@H](CCC(=O)O)C(=O)O` [ISOSPAGLUMIC ACID] (Ac-Asp-Glu-OH), the IC50 in data set [5] was 3 mM.

B1: Solute carrier family 15 member 2 (Rattus norvegicus), Q63424 (protein)
chain: T1 sequence (whole entry)
In the case of B1, the Km in data set [6] is 35 µM.
